Assay results published in the kinase profiling compilation of Christmann-Franck et al. (2016).

Columns and labels:
Details in all cases: compound 10.0 µM
SBK1 (human) = SBK1 (human) (UniProt Q52WX2)
DYRK1A (human) = DYRK1A (human) (UniProt Q13627)
CDK4 CCND1 (human) = CDK4 CCND1 (human) (UniProt P11802+P24385)
CDKL5 (human) = CDKL5 (human) (UniProt O76039)
STK32C (human) = STK32C (human) (UniProt Q86UX6)
PTK2 (human) = PTK2 (human) (UniProt Q05397)
[1] = biological target: JAK1 JH1 catalytic (human) (UniProt P23458)
ERBB2 (human) = ERBB2 (human) (UniProt P04626)
MTOR (human) = MTOR (human) (UniProt P42345)
EPHA8 (human) = EPHA8 (human) (UniProt P29322)
TGFBR1 (human) = TGFBR1 (human) (UniProt P36897)
PAK7 (human) = PAK7 (human) (UniProt Q9P286)
RAF1 (human) = RAF1 (human) (UniProt P04049)
HCK (human) = HCK (human) (UniProt P08631)
RPS6KA6 KD1 (human) = RPS6KA6 KD1 (human) (UniProt Q9UK32)
STK39 (human) = STK39 (human) (UniProt Q9UEW8)
[2] = system: RET (human), P07949 [V804M]
TNNI3K (human) = TNNI3K (human) (UniProt Q59H18)
BLK (human) = BLK (human) (UniProt P51451)
PKMYT1 (human) = PKMYT1 (human) (UniProt Q99640)
MET (human) = MET (human) (UniProt P08581)
[3] = system: MET (human), P08581 [M1250T]
[4] = system: KIT (human), P10721 [V559D/T670I]
BMP2K (human) = BMP2K (human) (UniProt Q9NSY1)
PHKG1 (human) = PHKG1 (human) (UniProt Q16816)
GSK3B (human) = GSK3B (human) (UniProt P49841)
MLTK (human) = MLTK (human) (UniProt Q9NYL2)
ULK1 (human) = ULK1 (human) (UniProt O75385)
CSNK1D (human) = CSNK1D (human) (UniProt P48730)
CDK2 (human) = CDK2 (human) (UniProt P24941)
CHUK (human) = CHUK (human) (UniProt O15111)
EPHA2 (human) = EPHA2 (human) (UniProt P29317)
FGFR2 (human) = FGFR2 (human) (UniProt P21802)
DDR1 (human) = DDR1 (human) (UniProt Q08345)
DDR2 (human) = DDR2 (human) (UniProt Q16832)
PAK1 (human) = PAK1 (human) (UniProt Q13153)
MAPK7 (human) = MAPK7 (human) (UniProt Q13164)
DAPK1 (human) = DAPK1 (human) (UniProt P53355)
ROCK1 (human) = ROCK1 (human) (UniProt Q13464)
CDK18 (human) = CDK18 (human) (UniProt Q07002)
PRKD1 (human) = PRKD1 (human) (UniProt Q15139)

Sequence of DAPK1 (human) (P53355 whole entry, looked up): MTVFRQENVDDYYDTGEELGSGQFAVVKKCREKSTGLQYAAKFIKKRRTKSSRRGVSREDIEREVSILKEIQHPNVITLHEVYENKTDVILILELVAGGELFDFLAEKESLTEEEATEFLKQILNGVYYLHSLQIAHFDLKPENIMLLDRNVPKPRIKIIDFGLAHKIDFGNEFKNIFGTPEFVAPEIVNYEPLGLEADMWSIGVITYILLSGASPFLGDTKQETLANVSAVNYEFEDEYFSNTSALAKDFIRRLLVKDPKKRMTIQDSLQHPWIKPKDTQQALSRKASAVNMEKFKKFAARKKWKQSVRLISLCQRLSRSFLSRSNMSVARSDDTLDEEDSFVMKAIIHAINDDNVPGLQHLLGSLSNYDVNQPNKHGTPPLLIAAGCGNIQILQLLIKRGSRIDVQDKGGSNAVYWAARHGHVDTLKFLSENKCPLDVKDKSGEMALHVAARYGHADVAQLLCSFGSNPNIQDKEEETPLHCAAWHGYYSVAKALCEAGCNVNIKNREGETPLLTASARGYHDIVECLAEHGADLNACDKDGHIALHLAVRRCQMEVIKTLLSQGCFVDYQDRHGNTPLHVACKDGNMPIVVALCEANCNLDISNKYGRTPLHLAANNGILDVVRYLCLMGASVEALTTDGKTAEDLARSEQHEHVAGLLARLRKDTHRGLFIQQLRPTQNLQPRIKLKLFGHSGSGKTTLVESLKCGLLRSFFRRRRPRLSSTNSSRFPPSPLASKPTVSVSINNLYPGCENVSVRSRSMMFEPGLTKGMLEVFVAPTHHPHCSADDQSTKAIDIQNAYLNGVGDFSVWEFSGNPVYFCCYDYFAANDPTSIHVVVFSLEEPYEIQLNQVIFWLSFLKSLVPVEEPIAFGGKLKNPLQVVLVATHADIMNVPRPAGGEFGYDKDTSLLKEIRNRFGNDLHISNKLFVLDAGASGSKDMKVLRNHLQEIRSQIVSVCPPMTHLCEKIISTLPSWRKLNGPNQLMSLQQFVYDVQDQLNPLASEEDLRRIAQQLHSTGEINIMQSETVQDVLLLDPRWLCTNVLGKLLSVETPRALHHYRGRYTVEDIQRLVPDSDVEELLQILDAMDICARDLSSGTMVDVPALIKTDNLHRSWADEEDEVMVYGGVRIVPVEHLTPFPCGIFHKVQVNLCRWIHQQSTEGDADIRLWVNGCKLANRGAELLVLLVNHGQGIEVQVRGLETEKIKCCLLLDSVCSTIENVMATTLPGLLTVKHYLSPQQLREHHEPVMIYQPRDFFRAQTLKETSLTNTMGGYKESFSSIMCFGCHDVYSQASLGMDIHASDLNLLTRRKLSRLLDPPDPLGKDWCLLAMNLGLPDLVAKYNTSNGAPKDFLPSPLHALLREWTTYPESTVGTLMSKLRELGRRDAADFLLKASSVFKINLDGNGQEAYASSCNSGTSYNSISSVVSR
Sequence of CDK18 (human) (Q07002 whole entry, looked up): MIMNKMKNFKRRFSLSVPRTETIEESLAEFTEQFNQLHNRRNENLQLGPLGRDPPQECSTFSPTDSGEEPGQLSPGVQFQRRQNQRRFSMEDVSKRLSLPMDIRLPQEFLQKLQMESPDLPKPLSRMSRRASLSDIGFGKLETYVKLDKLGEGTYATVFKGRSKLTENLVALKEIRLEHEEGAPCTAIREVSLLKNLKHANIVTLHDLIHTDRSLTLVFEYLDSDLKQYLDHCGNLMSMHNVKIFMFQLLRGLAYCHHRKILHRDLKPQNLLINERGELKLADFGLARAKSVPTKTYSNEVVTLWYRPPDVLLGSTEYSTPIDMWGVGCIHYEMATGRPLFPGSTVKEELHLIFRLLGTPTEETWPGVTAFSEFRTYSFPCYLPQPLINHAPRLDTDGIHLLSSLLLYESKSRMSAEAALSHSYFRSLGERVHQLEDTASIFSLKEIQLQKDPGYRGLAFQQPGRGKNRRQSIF
Sequence of PKMYT1 (human) (Q99640 whole entry, looked up): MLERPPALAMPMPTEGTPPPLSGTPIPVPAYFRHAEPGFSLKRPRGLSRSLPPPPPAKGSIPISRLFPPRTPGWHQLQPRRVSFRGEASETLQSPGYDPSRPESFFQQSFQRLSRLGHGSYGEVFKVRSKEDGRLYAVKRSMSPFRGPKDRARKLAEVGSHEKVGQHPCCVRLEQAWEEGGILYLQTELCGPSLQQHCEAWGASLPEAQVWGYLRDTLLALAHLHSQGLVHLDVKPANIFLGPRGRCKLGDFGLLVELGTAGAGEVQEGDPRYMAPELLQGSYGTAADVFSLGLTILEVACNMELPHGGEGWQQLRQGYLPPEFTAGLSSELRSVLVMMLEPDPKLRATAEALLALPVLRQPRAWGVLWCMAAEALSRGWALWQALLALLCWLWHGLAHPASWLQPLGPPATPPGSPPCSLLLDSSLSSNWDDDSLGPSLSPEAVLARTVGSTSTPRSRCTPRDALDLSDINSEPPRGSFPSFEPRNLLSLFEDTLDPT
Sequence of DDR1 (human) (Q08345 whole entry, looked up): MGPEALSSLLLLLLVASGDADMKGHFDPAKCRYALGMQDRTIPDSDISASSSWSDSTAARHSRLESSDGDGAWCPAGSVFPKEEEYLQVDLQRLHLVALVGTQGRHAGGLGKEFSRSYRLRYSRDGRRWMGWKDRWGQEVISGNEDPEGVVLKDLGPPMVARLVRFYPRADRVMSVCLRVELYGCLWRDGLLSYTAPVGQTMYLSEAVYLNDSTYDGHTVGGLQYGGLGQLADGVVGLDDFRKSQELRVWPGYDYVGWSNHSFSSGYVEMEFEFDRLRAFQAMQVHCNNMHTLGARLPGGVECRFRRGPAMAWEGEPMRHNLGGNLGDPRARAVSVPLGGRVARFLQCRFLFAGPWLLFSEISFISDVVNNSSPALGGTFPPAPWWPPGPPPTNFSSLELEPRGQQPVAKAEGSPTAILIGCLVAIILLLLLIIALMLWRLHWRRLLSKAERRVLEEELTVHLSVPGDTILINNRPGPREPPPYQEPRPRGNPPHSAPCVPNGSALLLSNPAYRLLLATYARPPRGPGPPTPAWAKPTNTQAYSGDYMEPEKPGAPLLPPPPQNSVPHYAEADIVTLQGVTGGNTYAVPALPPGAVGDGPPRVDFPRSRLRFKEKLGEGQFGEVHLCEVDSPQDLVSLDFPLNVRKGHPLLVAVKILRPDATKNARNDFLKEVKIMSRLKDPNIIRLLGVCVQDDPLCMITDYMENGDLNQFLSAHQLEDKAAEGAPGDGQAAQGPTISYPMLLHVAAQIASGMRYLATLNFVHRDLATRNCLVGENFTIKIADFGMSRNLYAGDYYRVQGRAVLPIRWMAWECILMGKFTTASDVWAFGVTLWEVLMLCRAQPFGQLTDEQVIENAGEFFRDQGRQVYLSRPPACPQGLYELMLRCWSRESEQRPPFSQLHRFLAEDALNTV
Sequence of ULK1 (human) (O75385 whole entry, looked up): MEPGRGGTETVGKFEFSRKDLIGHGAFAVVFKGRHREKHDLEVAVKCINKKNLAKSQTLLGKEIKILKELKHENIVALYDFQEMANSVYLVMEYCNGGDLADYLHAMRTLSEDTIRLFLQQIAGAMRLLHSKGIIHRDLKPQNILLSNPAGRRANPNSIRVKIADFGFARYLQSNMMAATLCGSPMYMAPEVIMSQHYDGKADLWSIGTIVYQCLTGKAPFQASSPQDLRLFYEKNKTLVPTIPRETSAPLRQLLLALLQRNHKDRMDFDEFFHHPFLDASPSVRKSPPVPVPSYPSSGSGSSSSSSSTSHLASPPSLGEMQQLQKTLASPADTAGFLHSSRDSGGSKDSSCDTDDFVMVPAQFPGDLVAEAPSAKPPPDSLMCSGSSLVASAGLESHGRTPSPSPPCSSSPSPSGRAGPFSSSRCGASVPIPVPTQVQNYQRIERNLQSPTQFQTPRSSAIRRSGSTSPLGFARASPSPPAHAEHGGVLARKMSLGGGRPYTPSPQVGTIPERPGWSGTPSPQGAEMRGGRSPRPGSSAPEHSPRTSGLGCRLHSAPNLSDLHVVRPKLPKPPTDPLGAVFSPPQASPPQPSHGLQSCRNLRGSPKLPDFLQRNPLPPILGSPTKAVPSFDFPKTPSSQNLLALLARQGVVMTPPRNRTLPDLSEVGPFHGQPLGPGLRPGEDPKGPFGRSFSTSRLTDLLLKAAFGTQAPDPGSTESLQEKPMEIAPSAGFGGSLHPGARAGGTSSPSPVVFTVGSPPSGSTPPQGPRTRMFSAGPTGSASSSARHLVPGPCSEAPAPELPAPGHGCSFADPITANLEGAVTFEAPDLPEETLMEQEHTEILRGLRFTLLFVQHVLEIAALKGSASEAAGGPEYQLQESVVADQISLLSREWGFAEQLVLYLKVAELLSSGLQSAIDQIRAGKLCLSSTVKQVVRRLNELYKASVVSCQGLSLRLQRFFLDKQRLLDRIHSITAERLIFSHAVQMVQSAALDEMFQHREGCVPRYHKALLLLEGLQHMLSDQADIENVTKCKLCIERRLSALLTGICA
Sequence of RAF1 (human) (P04049 whole entry, looked up): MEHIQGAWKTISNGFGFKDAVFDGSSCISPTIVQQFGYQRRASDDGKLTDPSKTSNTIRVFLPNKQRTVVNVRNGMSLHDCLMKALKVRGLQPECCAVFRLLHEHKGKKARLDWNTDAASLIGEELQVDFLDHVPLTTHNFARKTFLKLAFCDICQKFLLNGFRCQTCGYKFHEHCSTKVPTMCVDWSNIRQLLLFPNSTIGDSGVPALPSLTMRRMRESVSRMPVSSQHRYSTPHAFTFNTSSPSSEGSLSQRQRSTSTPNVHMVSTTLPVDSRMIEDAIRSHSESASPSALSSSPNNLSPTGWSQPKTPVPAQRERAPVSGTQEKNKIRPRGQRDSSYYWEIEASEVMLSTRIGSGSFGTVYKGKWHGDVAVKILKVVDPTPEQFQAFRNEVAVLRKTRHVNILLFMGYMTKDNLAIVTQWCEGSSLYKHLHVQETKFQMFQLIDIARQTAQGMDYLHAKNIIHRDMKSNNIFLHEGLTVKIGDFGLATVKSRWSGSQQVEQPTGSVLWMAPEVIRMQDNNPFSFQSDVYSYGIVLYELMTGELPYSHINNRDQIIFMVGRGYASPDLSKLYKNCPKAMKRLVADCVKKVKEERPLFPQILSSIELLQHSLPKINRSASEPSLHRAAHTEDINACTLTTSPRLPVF

SMILES: CNC(=O)c1cc(Oc2ccc(NC(=O)Nc3ccc(Cl)c(C(F)(F)F)c3)cc2)ccn1
- per cent of control (SBK1 (human)): 100%
- per cent of control (DYRK1A (human)): 100%
- per cent of control (CDK4 CCND1 (human)): 66%
- per cent of control (CDKL5 (human)): 67%
- per cent of control (STK32C (human)): 72%
- per cent of control (PTK2 (human)): 100%
- per cent of control [1]: 42%
- per cent of control (ERBB2 (human)): 100%
- per cent of control (MTOR (human)): 100%
- per cent of control (EPHA8 (human)): 0.9%
- per cent of control (TGFBR1 (human)): 100%
- per cent of control (PAK7 (human)): 100%
- per cent of control (RAF1 (human)): 0.7%
- per cent of control (HCK (human)): 14%
- per cent of control (RPS6KA6 KD1 (human)): 100%
- per cent of control (STK39 (human)): 76%
- per cent of control [2]: 0%
- per cent of control (TNNI3K (human)): 2.4%
- per cent of control (BLK (human)): 28%
- per cent of control (PKMYT1 (human)): 93%
- per cent of control (MET (human)): 74%
- per cent of control [3]: 86%
- per cent of control [4]: 0%
- per cent of control (BMP2K (human)): 65%
- per cent of control (PHKG1 (human)): 73%
- per cent of control (GSK3B (human)): 92%
- per cent of control (MLTK (human)): 0.6%
- per cent of control (ULK1 (human)): 89%
- per cent of control (CSNK1D (human)): 84%
- per cent of control (CDK2 (human)): 15%
- per cent of control (CHUK (human)): 93%
- per cent of control (EPHA2 (human)): 9%
- per cent of control (FGFR2 (human)): 6.4%
- per cent of control (DDR1 (human)): 0%
- per cent of control (DDR2 (human)): 13%
- per cent of control (PAK1 (human)): 100%
- per cent of control (MAPK7 (human)): 81%
- per cent of control (DAPK1 (human)): 95%
- per cent of control (ROCK1 (human)): 84%
- per cent of control (CDK18 (human)): 57%
- per cent of control (PRKD1 (human)): 100%

SMILES: CNC(=O)c1cc(Oc2ccc(NC(=O)Nc3ccc(Cl)c(C(F)(F)F)c3)cc2)cc[n+]1[O-]
- per cent of control (SBK1 (human)): 100%
- per cent of control (DYRK1A (human)): 95%
- per cent of control (CDK4 CCND1 (human)): 74%
- per cent of control (CDKL5 (human)): 27%
- per cent of control (STK32C (human)): 87%
- per cent of control (PTK2 (human)): 97%
- per cent of control [1]: 50%
- per cent of control (ERBB2 (human)): 100%
- per cent of control (MTOR (human)): 100%
- per cent of control (EPHA8 (human)): 0.3%
- per cent of control (TGFBR1 (human)): 100%
- per cent of control (PAK7 (human)): 82%
- per cent of control (RAF1 (human)): 0.45%
- per cent of control (HCK (human)): 8.8%
- per cent of control (RPS6KA6 KD1 (human)): 97%
- per cent of control (STK39 (human)): 87%
- per cent of control [2]: 0%
- per cent of control (TNNI3K (human)): 2.4%
- per cent of control (BLK (human)): 11%
- per cent of control (PKMYT1 (human)): 100%
- per cent of control (MET (human)): 16%
- per cent of control [3]: 16%
- per cent of control [4]: 0%
- per cent of control (BMP2K (human)): 100%
- per cent of control (PHKG1 (human)): 77%
- per cent of control (GSK3B (human)): 79%
- per cent of control (MLTK (human)): 0.85%
- per cent of control (ULK1 (human)): 99%
- per cent of control (CSNK1D (human)): 91%
- per cent of control (CDK2 (human)): 1.8%
- per cent of control (CHUK (human)): 6.5%
- per cent of control (EPHA2 (human)): 4.7%
- per cent of control (FGFR2 (human)): 8.9%
- per cent of control (DDR1 (human)): 0.05%
- per cent of control (DDR2 (human)): 19%
- per cent of control (PAK1 (human)): 100%
- per cent of control (MAPK7 (human)): 65%
- per cent of control (DAPK1 (human)): 85%
- per cent of control (ROCK1 (human)): 23%
- per cent of control (CDK18 (human)): 26%
- per cent of control (PRKD1 (human)): 63%
